The values below come from PubChem BioAssay AID1259407 (Chemical Carcinogenesis Research Information System (CCRIS), 2018).

Active and inactive are the calls of the source. How the calls were made is not given here.

This data set deals with CCRIS mutagenicity, Ames/micronucleus/aberration tests. Nature of the data set: CCRIS mutagenicity studies.

With `COc1ccc(N=[N+]([O-])c2ccc(OC)cc2)cc1`, the mutagenic call is “inactive; negative” (Test System: AMES SALMONELLA TYPHIMURIUM, Strain/Indicator: TA97, Metabolic Activation: HAMSTER, LIVER, S-9, AROCLOR 1254 (5%), Method: PREINCUBATION); “active; positive” (Test System: AMES SALMONELLA TYPHIMURIUM, Strain/Indicator: TA97, Metabolic Activation: HAMSTER, LIVER, S-9, AROCLOR 1254 (10 OR 30%), Method: PREINCUBATION); “inactive; negative” (Test System: AMES SALMONELLA TYPHIMURIUM, Strain/Indicator: TA97, Metabolic Activation: NONE, Method: PREINCUBATION); “active; positive” (Test System: AMES SALMONELLA TYPHIMURIUM, Strain/Indicator: TA97, Metabolic Activation: RAT, LIVER, S-9, AROCLOR 1254 (5 OR 10%), Method: PREINCUBATION); “inactive; negative” (Test System: AMES SALMONELLA TYPHIMURIUM, Strain/Indicator: TA97, Metabolic Activation: RAT, LIVER, S-9, AROCLOR 1254 (30%), Method: PREINCUBATION); “inactive; negative” (Test System: AMES SALMONELLA TYPHIMURIUM, Strain/Indicator: TA98, Metabolic Activation: HAMSTER, LIVER, S-9, AROCLOR 1254 (30%), Method: PREINCUBATION). In addition, the mutagenic call runs as follows: (Test System: AMES SALMONELLA TYPHIMURIUM, Strain/Indicator: TA98, Metabolic Activation: NONE, Method: PREINCUBATION) “inactive; negative”; (Test System: AMES SALMONELLA TYPHIMURIUM, Strain/Indicator: TA98, Metabolic Activation: RAT, LIVER, S-9, AROCLOR 1254 (30%), Method: PREINCUBATION) “inactive; negative”; (Test System: AMES SALMONELLA TYPHIMURIUM, Strain/Indicator: TA100, Metabolic Activation: HAMSTER, LIVER, S-9, AROCLOR 1254 (30%), Method: PREINCUBATION) “inactive; negative”; (Test System: AMES SALMONELLA TYPHIMURIUM, Strain/Indicator: TA100, Metabolic Activation: NONE, Method: PREINCUBATION) “inactive; negative”; (Test System: AMES SALMONELLA TYPHIMURIUM, Strain/Indicator: TA100, Metabolic Activation: RAT, LIVER, S-9, AROCLOR 1254 (30%), Method: PREINCUBATION) “inactive; negative”; (Test System: AMES SALMONELLA TYPHIMURIUM, Strain/Indicator: TA1535, Metabolic Activation: HAMSTER, LIVER, S-9, AROCLOR 1254 (30%), Method: PREINCUBATION) “inactive; negative”. Further, the mutagenic call reads like this: (Test System: AMES SALMONELLA TYPHIMURIUM, Strain/Indicator: TA1535, Metabolic Activation: NONE, Method: PREINCUBATION) “inactive; negative”; (Test System: AMES SALMONELLA TYPHIMURIUM, Strain/Indicator: TA1535, Metabolic Activation: RAT, LIVER, S-9, AROCLOR 1254 (30%), Method: PREINCUBATION) “inactive; negative”; (Test System: AMES SALMONELLA TYPHIMURIUM, Strain/Indicator: TA1537, Metabolic Activation: HAMSTER, LIVER, S-9, AROCLOR 1254 (5 OR 10%), Method: PREINCUBATION) “inactive; negative”; (Test System: AMES SALMONELLA TYPHIMURIUM, Strain/Indicator: TA1537, Metabolic Activation: HAMSTER, LIVER, S-9, AROCLOR 1254 (30%), Method: PREINCUBATION) “active; positive”; (Test System: AMES SALMONELLA TYPHIMURIUM, Strain/Indicator: TA1537, Metabolic Activation: NONE, Method: PREINCUBATION) “inactive; negative”.

With `Cc1ccc2c(=O)c3cccc4ccc1c2c43`, the mutagenic call (Test System: AMES SALMONELLA TYPHIMURIUM, Strain/Indicator: TA100, Metabolic Activation: RAT, LIVER, S-9, AROCLOR 1254, Method: STANDARD PLATE) was “active; positive”.

For the molecule `FC(F)(F)I`, the mutagenic call (Test System: AMES SALMONELLA TYPHIMURIUM, Strain/Indicator: TA98, Metabolic Activation: NONE, Method: DESICCATOR) is “active; positive”; the mutagenic call (Test System: AMES SALMONELLA TYPHIMURIUM, Strain/Indicator: TA98, Metabolic Activation: RAT, LIVER, S-9, AROCLOR 1254, Method: DESICCATOR) was “active; positive”; the mutagenic call (Test System: AMES SALMONELLA TYPHIMURIUM, Strain/Indicator: TA100, Metabolic Activation: NONE, Method: DESICCATOR) was “active; positive”; the mutagenic call (Test System: AMES SALMONELLA TYPHIMURIUM, Strain/Indicator: TA100, Metabolic Activation: RAT, LIVER, S-9, AROCLOR 1254, Method: DESICCATOR) is “active; positive”; the mutagenic call (Test System: AMES SALMONELLA TYPHIMURIUM, Strain/Indicator: TA1535, Metabolic Activation: NONE, Method: DESICCATOR) was “active; positive”; the mutagenic call (Test System: AMES SALMONELLA TYPHIMURIUM, Strain/Indicator: TA1535, Metabolic Activation: RAT, LIVER, S-9, AROCLOR 1254, Method: DESICCATOR) was “active; positive”. In addition, the mutagenic call was “active; positive” (Test System: AMES SALMONELLA TYPHIMURIUM, Strain/Indicator: TA1537, Metabolic Activation: NONE, Method: DESICCATOR); “active; positive” (Test System: AMES SALMONELLA TYPHIMURIUM, Strain/Indicator: TA1537, Metabolic Activation: RAT, LIVER, S-9, AROCLOR 1254, Method: DESICCATOR); “inactive; negative” (Test System: AMES SALMONELLA TYPHIMURIUM, Strain/Indicator: TA1538, Metabolic Activation: NONE, Method: DESICCATOR); “inactive; negative” (Test System: AMES SALMONELLA TYPHIMURIUM, Strain/Indicator: TA1538, Metabolic Activation: RAT, LIVER, S-9, AROCLOR 1254, Method: DESICCATOR); “inactive; negative” (Test System: MOUSE LYMPHOMA, Strain/Indicator: L5178Y (TK+/TK-), Metabolic Activation: NONE, Method: SUSPENSION/PLATE); “inactive; negative” (Test System: MOUSE LYMPHOMA, Strain/Indicator: L5178Y (TK+/TK-), Metabolic Activation: RAT, LIVER, S-9, AROCLOR 1254, Method: SUSPENSION/PLATE).
